Reference: the supplement of paper PMC10307832

How the values were obtained:
Test in all cases: relative viability (nuclei count vs DMSO), 5 days (fraction); higher = more cells survive
Gemcitabine + Olaparib = compound: Nc1ccn([C@@H]2O[C@H](CO)[C@@H](O)C2(F)F)c(=O)n1 [Gemcitabine] + O=C(c1cc(Cc2n[nH]c(=O)c3ccccc23)ccc1F)N1CCN(C(=O)C2CC2)CC1 [Olaparib] (partner 8 µM)
Procedure, shortened: (§1)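 After 5 days of treatment, lung cancer cells in 1536-well plates were fixed and stained in a single step (final 0.05% Triton X-100, 1% formaldehyde, 1 ug/ml Hoechst) and their nuclei counted on 4× images. Treatment had been applied by pin tool the day after seeding as one drug alone or as a fixed anchor-drug dose with five library-drug doses (not always all listed) in √10 steps. Relative viability is the nuclei count of treated wells divided by that of vehicle wells, and values are medians of duplicate plates.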

Gemcitabine + Pemetrexed = compound: Nc1ccn([C@@H]2O[C@H](CO)[C@@H](O)C2(F)F)c(=O)n1 [Gemcitabine] + Nc1nc2[nH]cc(CCc3ccc(C(=O)N[C@@H](CCC(=O)O)C(=O)O)cc3)c2c(=O)[nH]1 [Pemetrexed] (partner 0.2 µM)
Procedure, shortened: as §1

Gemcitabine + Alpelisib = compound: Nc1ccn([C@@H]2O[C@H](CO)[C@@H](O)C2(F)F)c(=O)n1 [Gemcitabine] + Cc1nc(NC(=O)N2CCC[C@H]2C(N)=O)sc1-c1ccnc(C(C)(C)C(F)(F)F)c1 [Alpelisib] (partner 2 µM)
Procedure, shortened: as §1

[1] = compound: Nc1ccn([C@@H]2O[C@H](CO)[C@@H](O)C2(F)F)c(=O)n1 [Gemcitabine] + CC(=O)c1c(C)c2cnc(Nc3ccc(N4CCNCC4)cn3)nc2n(C2CCCC2)c1=O [Palbociclib] (partner 0.5 µM)
Procedure, shortened: as §1

| Cell Line | relative viability (Gemcitabine + Olaparib; first compound 0.001 µM) | relative viability (Gemcitabine + Olaparib; first compound 0.003162 µM) | relative viability (Gemcitabine + Olaparib; first compound 0.01 µM) | relative viability (Gemcitabine + Olaparib; first compound 0.03162 µM) | relative viability (Gemcitabine + Olaparib; first compound 0.1 µM) | relative viability (Gemcitabine + Pemetrexed; first compound 0.001 µM) | relative viability (Gemcitabine + Pemetrexed; first compound 0.003162 µM) | relative viability (Gemcitabine + Pemetrexed; first compound 0.01 µM) | relative viability (Gemcitabine + Pemetrexed; first compound 0.03162 µM) | relative viability (Gemcitabine + Pemetrexed; first compound 0.1 µM) | relative viability (Gemcitabine + Alpelisib; first compound 0.001 µM) | relative viability (Gemcitabine + Alpelisib; first compound 0.003162 µM) | relative viability (Gemcitabine + Alpelisib; first compound 0.01 µM) | relative viability (Gemcitabine + Alpelisib; first compound 0.03162 µM) | relative viability (Gemcitabine + Alpelisib; first compound 0.1 µM) | relative viability ([1]; first compound 0.001 µM) | relative viability ([1]; first compound 0.003162 µM) | relative viability ([1]; first compound 0.01 µM) | relative viability ([1]; first compound 0.03162 µM) | relative viability ([1]; first compound 0.1 µM) |
| --- | --- | --- | --- | --- | --- | --- | --- | --- | --- | --- | --- | --- | --- | --- | --- | --- | --- | --- | --- | --- |
| EKVX | 0.898 | 0.672 | 0.289 | 0.174 | 0.11 | 0.351 | 0.333 | 0.133 | 0.151 | 0.14 | 0.93 | 0.77 | 0.454 | 0.147 | 0.132 | 0.412 | 0.284 | 0.237 | 0.168 | 0.154 |
| EMC-BAC-2 | 0.534 | 0.578 | 0.316 | 0.181 | 0.201 | 0.439 | 0.454 | 0.389 | 0.27 | 0.292 | 0.726 | 0.768 | 0.627 | 0.12 | 0.0893 | 0.529 | 0.515 | 0.46 | 0.256 | 0.25 |
| EPLC-272H | 0.967 | 0.545 | 0.221 | 0.0733 | 0.0557 | 0.316 | 0.33 | 0.132 | 0.178 | 0.108 | 1.04 | 0.809 | 0.541 | 0.304 | 0.1 | 0.384 | 0.323 | 0.275 | 0.244 | 0.21 |
| H3255 | 0.573 | 0.528 | 0.451 | 0.269 | 0.242 | 0.565 | 0.519 | 0.591 | 0.335 | 0.224 | 0.8 | 0.403 | 0.472 | 0.185 | 0.168 | 0.348 | 0.347 | 0.286 | 0.285 | 0.264 |
| HARA | 0.927 | 1.1 | 0.535 | 0.162 | 0.0774 | 0.272 | 0.263 | 0.236 | 0.196 | 0.0974 | 0.827 | 0.808 | 0.682 | 0.233 | 0.0894 | 0.234 | 0.283 | 0.219 | 0.179 | 0.139 |
| HCC-15 | 0.831 | 0.73 | 0.625 | 0.175 | 0.103 | 0.224 | 0.226 | 0.226 | 0.229 | 0.109 | 1.01 | 0.893 | 0.766 | 0.145 | 0.0627 | 0.811 | 0.722 | 0.634 | 0.327 | 0.0961 |
| HCC-44 | 0.932 | 0.988 | 0.931 | 0.704 | 0.391 | 0.634 | 0.68 | 0.66 | 0.632 | 0.63 | 0.808 | 0.791 | 0.636 | 0.238 | 0.122 | 0.934 | 0.908 | 0.938 | 0.717 | 0.447 |
| HCC-78 | 0.715 | 0.335 | 0.213 | 0.21 | 0.181 | 0.92 | 0.879 | 0.895 | 0.9 | 0.896 | 0.278 | 0.241 | 0.12 | 0.157 | 0.13 | 0.495 | 0.446 | 0.388 | 0.302 | 0.294 |
